biological target: E. coli PBP3 (Escherichia coli (strain K12), UniProt P0AD68); experiment: E. coli PBP3 Bocillin-FL fluorescence polarization competition binding assay; conditions: not given
Description: To determine the ability of boronic acid-based test PBP inhibitors to bind Penicillin Binding Proteins (PBPs), Bocillin-FL (fluorescently-labeled penicillin V; ThermoFisher Scientific) was used in a fluorescence polarization (FP) competition binding assay to assess inhibitor binding to PBP2, PBP3 or PBP4 from Escherichia coli. PBPs were cloned and purified as described previously (King, D. T, et al., ACS Infectious Diseases 2015, 1, 175-184). To establish assay conditions for competition binding, an enzyme titration/saturation binding experiment was initially performed. Bocillin-FL was prepared at 0.2 μM in a buffer comprised of 50 mM Hepes (pH 8.0), 300 mM NaCl and 5% (v/v) glycerol. Saturation binding was performed by mixing 40 μl of PBP solutions ranging in concentrations from 0-12 μM with 40 μl of the 0.2 μM Bocillin-FL solution, in individual wells of a black 384-well microplate. FP was measured immediately upon mixing (Excitation, 490 nm; Emission, 520 nm; g-factor, 0.96), using a Cytation3 (BioTek) microplate reader and measured continuously for up to 120 minutes. […] Assays (80 μl final volume) were performed with PBPs at a final concentration of 1.5 μM, Bocillin-FL at 0.1 μM and beta-lactam concentrations that ranged from 0-1000 μM. […] Bocillin-FL was added and the FP immediately measured for 60 minutes (90 minutes for PBP2). The beta-lactam potency was reported as the concentration of beta-lactam required to reduce binding of Bocillin-FL by […] (EC50). […] Binding assays for boronic acid PBP inhibitors were performed in an identical fashion.

Chain of E. coli PBP3 (P0AD68 whole entry): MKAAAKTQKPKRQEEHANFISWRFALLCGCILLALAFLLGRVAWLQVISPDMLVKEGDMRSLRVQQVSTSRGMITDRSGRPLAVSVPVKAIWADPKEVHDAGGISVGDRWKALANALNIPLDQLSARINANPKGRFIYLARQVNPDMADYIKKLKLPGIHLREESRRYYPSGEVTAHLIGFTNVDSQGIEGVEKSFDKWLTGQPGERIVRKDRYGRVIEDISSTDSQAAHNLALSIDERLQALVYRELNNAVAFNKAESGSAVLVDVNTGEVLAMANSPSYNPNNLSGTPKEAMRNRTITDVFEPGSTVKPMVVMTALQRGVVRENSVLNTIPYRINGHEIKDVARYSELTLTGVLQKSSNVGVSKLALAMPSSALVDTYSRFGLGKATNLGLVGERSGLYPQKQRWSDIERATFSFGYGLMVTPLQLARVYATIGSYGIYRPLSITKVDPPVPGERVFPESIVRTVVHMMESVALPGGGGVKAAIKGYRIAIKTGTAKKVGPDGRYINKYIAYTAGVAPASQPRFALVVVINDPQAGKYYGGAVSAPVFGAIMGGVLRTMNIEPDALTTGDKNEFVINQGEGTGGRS

Compound | EC50 [µM]
CCN1CCN(C(=O)NC(C(=O)N[C@H]2Cc3cccc(C(=O)O)c3OB2O)[C@H](O)C(F)(F)F)C(=O)C1=O (mixture of isomers) [Example 157, (3R)-3-((3S)-2-(4-ethyl-2,3-dioxopiperazine-1-carboxamido)-4,4,4-trifluoro-3-hydroxybutanamido)-2-hydroxy-3,4-dihydro-2H-benzo[e][1,2]oxaborinine-8-carboxylic acid] | > 500
CCN1CCN(C(=O)NC(CC(=O)N[C@H]2Cc3cccc(C(=O)O)c3OB2O)c2cc(O)c(O)c(Br)c2)C(=O)C1=O (stereo partly drawn) [Example 42, (3R)-3-(3-(3-bromo-4,5-dihydroxyphenyl)-3-(4-ethyl-2,3-dioxopiperazine-1-carboxamido)propanamido)-2-hydroxy-3,4-dihydro-2H-benzo[e][1,2]oxaborinine-8-carboxylic acid] | 30 to 500
CCN1CCN(C(=O)NC(C(=O)N[C@H]2Cc3cccc(C(=O)O)c3OB2O)c2ccc(O)c(OCCNC(=O)OCc3ccccc3)c2)C(=O)C1=O (stereo partly drawn) [Example 50, (3R)-3-(2-(3-(2-(((benzyloxy)carbonyl)amino)ethoxy)-4-hydroxyphenyl)-2-(4-ethyl-2,3-dioxopiperazine-1-carboxamido)acetamido)-2-hydroxy-3,4-dihydro-2H-benzo[e][1,2]oxaborinine-8-carboxylic acid] | 30 to 500
CCN1CCN(C(=O)NC(C(=O)N[C@H]2Cc3cccc(C(=O)O)c3OB2O)c2cccc(OC)n2)C(=O)C1=O (stereo partly drawn) [Example 120, (3R)-3-(2-(4-ethyl-2,3-dioxopiperazine-1-carboxamido)-2-(6-methoxypyridin-2-yl)acetamido)-2-hydroxy-3,4-dihydro-2H-benzo[e][1,2]oxaborinine-8-carboxylic acid] | 30 to 500
CCN1CCN(C(=O)NC(C(=O)N[C@H]2Cc3cccc(C(=O)O)c3OB2O)C2CCCO2)C(=O)C1=O (stereo partly drawn) [Example 122, (3R)-3-(2-(4-ethyl-2,3-dioxopiperazine-1-carboxamido)-2-(tetrahydrofuran-2-yl)acetamido)-2-hydroxy-3,4-dihydro-2H-benzo[e][1,2]oxaborinine-8-carboxylic acid] | 30 to 500
CCN1CCN(C(=O)N[C@H](C(=O)N[C@H]2Cc3ccc(F)c(C(=O)O)c3OB2O)c2ccsc2)C(=O)C1=O [Example 139, (R)-3-((S)-2-(4-ethyl-2,3-dioxopiperazine-1-carboxamido)-2-(thiophen-3-yl)acetamido)-7-fluoro-2-hydroxy-3,4-dihydro-2H-benzo[e][1,2]oxaborinine-8-carboxylic acid] | 30 to 500
CCN1CCN(C(=O)N[C@@H](C(=O)N[C@H]2Cc3cccc(C(=O)O)c3OB2O)[C@H](C)OC)C(=O)C1=O [Example 146, (R)-3-((2R,3S)-2-(4-ethyl-2,3-dioxopiperazine-1-carboxamido)-3-methoxybutanamido)-2-hydroxy-3,4-dihydro-2H-benzo[e][1,2]oxaborinine-8-carboxylic acid] | 30 to 500
CCN1CCN(C(=O)N[C@@H](C(=O)N[C@H]2Cc3ccc(F)c(C(=O)O)c3OB2O)[C@H](O)C(F)(F)F)C(=O)C1=O [Example 158, (R)-3-((2R,3S)-2-(4-ethyl-2,3-dioxopiperazine-1-carboxamido)-4,4,4-trifluoro-3-hydroxybutanamido)-7-fluoro-2-hydroxy-3,4-dihydro-2H-benzo[e][1,2]oxaborinine-8-carboxylic acid] | 30 to 500
CCN1CCN(C(=O)NC(C(=O)N[C@H]2Cc3ccc(F)c(C(=O)O)c3OB2O)c2cscn2)C(=O)C1=O (stereo partly drawn) [Example 165, (3R)-3-(2-(4-ethyl-2,3-dioxopiperazine-1-carboxamido)-2-(thiazol-4-yl)acetamido)-7-fluoro-2-hydroxy-3,4-dihydro-2H-benzo[e][1,2]oxaborinine-8-carboxylic acid] | 30 to 500
CCN1CCN(C(=O)NC(C(=O)N[C@H]2Cc3cc(F)c(F)c(C(=O)O)c3OB2O)c2csc(N)n2)C(=O)C1=O (stereo partly drawn) [Example 175, (3R)-3-(2-(2-aminothiazol-4-yl)-2-(4-ethyl-2,3-dioxopiperazine-1-carboxamido)acetamido)-6,7-difluoro-2-hydroxy-3,4-dihydro-2H-benzo[e][1,2]oxaborinine-8-carboxylic acid] | 30 to 500
CCN1CCN(C(=O)NC(C(=O)N[C@H]2Cc3c(F)cc(F)c(C(=O)O)c3OB2O)c2csc(N)n2)C(=O)C1=O (stereo partly drawn) [Example 184, (3R)-3-(2-(2-aminothiazol-4-yl)-2-(4-ethyl-2,3-dioxopiperazine-1-carboxamido)acetamido)-5,7-difluoro-2-hydroxy-3,4-dihydro-2H-benzo[e][1,2]oxaborinine-8-carboxylic acid] | 30 to 500
CCN1CCN(C(=O)NC(C(=O)N[C@H]2Cc3cccc(C(=O)O)c3OB2O)c2csc(N)n2)C(O)C1=O (stereo partly drawn) [Example 193, (3R)-3-(2-(2-aminothiazol-4-yl)-2-(4-ethyl-2-hydroxy-3-oxopiperazine-1-carboxamido)acetamido)-2-hydroxy-3,4-dihydro-2H-benzo[e][1,2]oxaborinine-8-carboxylic acid] | 30 to 500

same assay, conditions: fluorescence polarization competition binding with Bocillin-FL; read-out: E. coli K12 PBP3 Potency

Compound | EC50 [µM]
CCN1CCN(C(=O)NC(C(=O)N[C@H]2Cc3cccc(C(=O)O)c3OB2O)c2cccc(O)c2O)C(=O)C1=O (stereo partly drawn) [Example 44, (3R)-3-(2-(2,3-dihydroxyphenyl)-2-(4-ethyl-2,3-dioxopiperazine-1-carboxamido)acetamido)-2-hydroxy-3,4-dihydro-2H-benzo[e][1,2]oxaborinine-8-carboxylic acid] | > 500
CCCN1CCN(C(=O)N[C@@H](C(=O)N[C@H]2Cc3ccc(F)c(C(=O)O)c3OB2O)[C@@H](C)O)C(=O)C1=O [Example 133, (R)-3-((2R,3R)-2-(2,3-dioxo-4-propylpiperazine-1-carboxamido)-3-hydroxybutanamido)-7-fluoro-2-hydroxy-3,4-dihydro-2H-benzo[e][1,2]oxaborinine-8-carboxylic acid] | > 500
CCN1CCN(C(=O)N[C@H](C(=O)N[C@H]2Cc3cccc(C(=O)O)c3OB2O)[C@H](C)OC)C(=O)C1=O [Example 147, (R)-3-((2S,3S)-2-(4-ethyl-2,3-dioxopiperazine-1-carboxamido)-3-methoxybutanamido)-2-hydroxy-3,4-dihydro-2H-benzo[e][1,2]oxaborinine-8-carboxylic acid] | > 500
CCN1CCN(C(=O)N[C@H](C(=O)N[C@H]2Cc3ccc(F)c(C(=O)O)c3OB2O)[C@H](O)C(F)(F)F)C(=O)C1=O [Example 159, (R)-3-((2S,3S)-2-(4-ethyl-2,3-dioxopiperazine-1-carboxamido)-4,4,4-trifluoro-3-hydroxybutanamido)-7-fluoro-2-hydroxy-3,4-dihydro-2H-benzo[e][1,2]oxaborinine-8-carboxylic acid] | > 500
CCN1CCN(C(=O)N[C@@H](C(=O)N[C@H]2Cc3ccc(F)c(C(=O)O)c3OB2O)[C@H](O)C(F)F)C(=O)C1=O [Example 163, (R)-3-((2R,3S)-2-(4-ethyl-2,3-dioxopiperazine-1-carboxamido)-4,4-difluoro-3-hydroxybutanamido)-7-fluoro-2-hydroxy-3,4-dihydro-2H-benzo[e][1,2]oxaborinine-8-carboxylic acid] | < 30
CCN1CCN(C(=O)N[C@H](C(=O)N[C@H]2Cc3ccc(F)c(C(=O)O)c3OB2O)[C@H](O)C(F)F)C(=O)C1=O [Example 164, (R)-3-((2S,3S)-2-(4-ethyl-2,3-dioxopiperazine-1-carboxamido)-4,4-difluoro-3-hydroxybutanamido)-7-fluoro-2-hydroxy-3,4-dihydro-2H-benzo[e][1,2]oxaborinine-8-carboxylic acid] | > 500
CCN1CCN(C(=O)N[C@@H](C(=O)N[C@H]2Cc3cccc(C(=O)O)c3OB2O)[C@H](O)C(F)F)C(=O)C1=O [Example 173, (R)-3-((2R,3S)-2-(4-ethyl-2,3-dioxopiperazine-1-carboxamido)-4,4-difluoro-3-hydroxybutanamido)-2-hydroxy-3,4-dihydro-2H-benzo[e][1,2]oxaborinine-8-carboxylic acid] | > 500
CCN1CCN(C(=O)N[C@H](C(=O)N[C@H]2Cc3cccc(C(=O)O)c3OB2O)[C@H](O)C(F)F)C(=O)C1=O [Example 174, (R)-3-((2S,3S)-2-(4-ethyl-2,3-dioxopiperazine-1-carboxamido)-4,4-difluoro-3-hydroxybutanamido)-2-hydroxy-3,4-dihydro-2H-benzo[e][1,2]oxaborinine-8-carboxylic acid] | > 500

Reference: patent US12173018B2, “Penicillin-binding protein inhibitors” (priority 2018, dated 2024)
